In this test the target is Autotaxin (Homo sapiens, UniProt Q13822). Kind of test: Human ATX Enzyme Inhibition Assay. The protocol: Assay working solutions were made as follows:Assay buffer (50 mM Tris-HCl, 140 mM NaCl, 5 mM KCl, 1 mM CaCl2, 1 mM MgCl2, 0.01% Triton-X-100, pH 8.0;ATX solution: ATX (human His-tagged) stock solution (1.08 mg/mL in 20 mM bicine, pH 8.5, 0.15 M NaCl, 10% glycerol, 0.3% CHAPS, 0.02% NaN3), diluted to 1.4-2.5× final concentration in assay buffer;MR121 substrate solution: MR121 substrate stock solution (800 μM MR121 substrate in DMSO), diluted to 2-5× final concentration in assay buffer.Test compounds (10 mM stock in DMSO, 8 μL) were obtained in 384 well sample plates (Corning Costar #3655) and diluted with 8 μL DMSO. Row-wise serial dilutions were made by transferring 8 μL cpd solution to the next row up to row O. The compound and control solutions were mixed five times and 2 μL were transferred to 384 well assay plates (Corning Costar #3702). Then, 15 μL of 41.7 nM ATX solution was added (30 nM final concentration), mixed five times and then incubated for 15 minutes at 30° C. 10 μL of MR121 substrate solution was added (1 μM final concentration), mixed 30 times and then incubated for 15 minutes at 30° C.

Experimental findings from BindingDB's records for patent US11352330 (Hoffmann-La Roche, 2022) are described below.

The IC50 is the midpoint of a concentration-inhibition curve.

The compound `COc1ccccc1-c1cc(Cl)c(C)cc1OCc1n[nH]c(=O)n1C` [US11352330, Example B56] yielded an IC50 of 15 nM.
